Like-named read-outs stand apart in the source and are kept apart here.
Columns and labels:
Assay type in all cases: physicochemical
[1] = logP and logD values water/octanol; conditions: for logD: pH 7.4, water/octanol; for logP: water/octanol
[2] = pKa values of the compounds 1 and 2
[3] = logP and logD values water/cyclohexane; conditions: for ΔlogP value at pH 7.4: difference of logP water/octanol and water/cyclohexane; for ΔlogD value at pH 7.4: pH 7.4, difference of logD water/octanol and water/cyclohexane
[4] = pH 7.4, water/cyclohexane, read-out: logD value at pH 7.4 water/cyclohexane
[5] = water/cyclohexane, read-out: logP value: water/cyclohexane

CCCC(=O)O[C@H]1CC[C@](O)(c2cccc(OC)c2)[C@@H](CN(C)C)C1 (racemic) [Compound 1, (1SR,3RS,4RS)-butyric acid 3-dimethylaminomethyl-4-hydroxy-4-(3-methoxy-phenyl)-cyclohexyl ester]
logD [1]: 1.48 | logP [1]: 2.9 | pKa [2]: 8.8 | ΔlogP value at pH 7.4 [3]: 0.538 | ΔlogD value at pH 7.4 [3]: 0.538 | logD hydrocarbon water [3, 4]: 0.946 | logD hydrocarbon water [3, 5]: 2.36

COc1cccc([C@@]2(O)CC[C@H](O)C[C@@H]2CN(C)C)c1 (racemic) [Compound 2, (1RS,2RS,4SR)-2-dimethylaminomethyl-1-(3-methoxy-phenyl)-cyclohexane-1,4-diol]
logD [1]: -0.564 | logP [1]: 1.1 | pKa [2]: 9.05 | ΔlogP value at pH 7.4 [3]: 1.733 | ΔlogD value at pH 7.4 [3]: 1.733 | logD hydrocarbon water [3, 4]: -2.3 | logD hydrocarbon water [3, 5]: -0.632
